According to publication PMC12668308, “A Novel Antimalarial Agent that Inhibits Protein Synthesis in Plasmodium falciparum” (Angewandte Chemie (International Ed. in English), 2025):

What was measured:
Assay in all cases: iSPP profiling, P. falciparum lysate
Assay type in all cases: binding, Plasmodium falciparum
[1] = system: 40S ribosomal protein S4 (W7JT49)
Experimental: (§1) P. falciparum NF54 lysates were extracted as described in ^[26^] . The parasite asynchronous culture was extracted once 3-5% parasitemia was reached. Saponin lysis was done as described in 2.2.10. Once the parasite pellet was obtained, 2.5 volumes of ice-cold lysis buffer (50 mM Tris/HCl pH 7.5 (Avantor), 5% glycerol (Sigma-Aldrich), 150 mM NaCl (Carl Roth), 1.5 mM MgCl2 (Sigma-Aldrich), 1 mM DTT (Carl Roth), 0.8% IGEPAL CA-630 (Sigma-Aldrich), 1X Halt Protease and Phosphatase Inhibitor-Cocktails EDTA-free (Thermo Fisher Scientific)) was added to the parasite pellet. The lysate solution was subjected to three cycles of flash freeze-thaw with liquid nitrogen and ddH2O at RT. The lysates were centrifuged at 20,000 g for 20 minutes at 4 °C. The soluble protein fraction (supernatant) was collected and the protein content was quantified using the BCA assay (Pierce™ BCA Protein Assay Kit, Thermo Fisher Scientific). The lysate was stored at -80 °C until further use.
(§2) The P. falciparum lysate was thawed on ice and diluted to 0.8 mg/mL. […] Subsequently, the samples were incubated at room temperature for 30 minutes using a rotating mixer. After distribution into a 96-well plate, the samples were treated with increasing concentrations of A.E.A. (v/v) ranging from 14% to 28% (14, 16, 18, 20, 22, 24, 26, and 28%). Following a 20-minute incubation at 37°C with shaking at 750 rpm, the samples were centrifuged at 4400 g for 35 minutes to remove precipitated proteins. The soluble fractions were then pooled in equal volumes into a single sample using the Bravo Automated Liquid Handling Platform. The pooled samples were subsequently prepared for LC-MS/MS analysis.
(§3) The raw LFQ-DIA intensity values of biological replicates across all conditions were normalized to the median abundance using Excel. The normalized values were then log2 transformed in Perseus (v2.0.10.0).^[58^] Missing values were imputed from a normal distribution (width 0.3, down shift 1.5), and p-values were obtained using a two-sample t-test over replicates with a permutation-based false discovery rate correction (FDR 0.05). Volcano plots were generated in RStudio using the EnhancedVolcano package (v. 1.20.0), ^[59^] plotting proteins by statistical significance (y-axis: –Log10 p-value) versus the magnitude of change (x-axis: log2 fold change of protein intensities for each compound condition relative to the vehicle control). The heatmap was generated in Perseus (v2.0.10.0). Dose-dependent curves were generated using normalized protein intensity values, expressed as a ratio to the vehicle control. Plots were created in GraphPad Prism (v8.3.0) using a nonlinear regression model.

[2] = system: 60S ribosomal protein L17 (W7KA36)
Experimental: as §1, §2, §3

[3] = system: 60S ribosomal protein L18a (W7JPN9)
Experimental: as §1, §2, §3

[4] = system: 60S ribosomal protein L22 (W7K6D9)
Experimental: as §1, §2, §3

[5] = system: 60S ribosomal protein L4 (W7KB54)
Experimental: as §1, §2, §3

[6] = system: AAA family ATPase (W7JWU4)
Experimental: as §1, §2, §3

[7] = system: ATP-dependent zinc metalloprotease FTSH (W7JKR1)
Experimental: as §1, §2, §3

[8] = system: DNA primase large subunit (W7KFW7)
Experimental: as §1, §2, §3

DnaJ protein (W7JVI6) = system: DnaJ protein (W7JVI6)
Experimental: as §1, §2, §3

[9] = system: Eukaryotic translation initiation factor 3 subunit A (W7KD62)
Experimental: as §1, §2, §3

[10] = system: FACT complex subunit (W7KAC4)
Experimental: as §1, §2, §3

[11] = system: PI3K/PI4K catalytic domain-containing protein (W7K7J6)
Experimental: as §1, §2, §3

[12] = system: Phospholipid-transporting ATPase (W7JSF3;W7K4C4)
Experimental: as §1, §2, §3

[13] = system: Ubiquitin-protein ligase (W7JWT0)
Experimental: as §1, §2, §3

[14] = system: Uncharacterized protein (W7KIB1)
Experimental: as §1, §2, §3

CN1CCN(Cc2ccc(O)c(NC(=O)c3cccc(Oc4cc(C(F)(F)F)ccn4)c3)c2)CC1 [Compound 31, N-(2-hydroxy-5-((4-methylpiperazin-1-yl)methyl)phenyl)-3-((4-(trifluoromethyl)pyridin-2-yl)oxy)benzamide]
log2FC ([1]; 10 µM): 0.53
log2FC ([1]; 50 µM): 0.68
log2FC ([1]; 100 µM): 0.62
log2FC ([1]; 10^-2 µM): 0.39
log2FC ([1]; 10^-3 µM): 0.19
log2FC ([2]; 10 µM): 0.35
log2FC ([2]; 50 µM): 0.49
log2FC ([2]; 100 µM): 0.40
log2FC ([2]; 10^-2 µM): 0.30
log2FC ([2]; 10^-3 µM): 0.17
log2FC ([3]; 10 µM): 0.72
log2FC ([3]; 50 µM): 1.09
log2FC ([3]; 100 µM): 0.81
log2FC ([3]; 10^-2 µM): 0.75
log2FC ([3]; 10^-3 µM): 0.60
log2FC ([4]; 10 µM): 0.72
log2FC ([4]; 50 µM): 0.75
log2FC ([4]; 100 µM): 0.65
log2FC ([4]; 10^-2 µM): 0.61
log2FC ([4]; 10^-3 µM): 0.18
log2FC ([5]; 10 µM): 0.49
log2FC ([5]; 50 µM): 0.63
log2FC ([5]; 100 µM): 0.50
log2FC ([5]; 10^-2 µM): 0.41
log2FC ([5]; 10^-3 µM): 0.21
log2FC ([6]; 10 µM): 0.33
log2FC ([6]; 50 µM): 0.46
log2FC ([6]; 100 µM): 0.35
log2FC ([6]; 10^-2 µM): 0.29
log2FC ([6]; 10^-3 µM): 0.18
log2FC ([7]; 10 µM): 0.49
log2FC ([7]; 50 µM): 0.64
log2FC ([7]; 100 µM): 0.46
log2FC ([7]; 10^-2 µM): 0.46
log2FC ([7]; 10^-3 µM): 0.20
log2FC ([8]; 10 µM): 0.33
log2FC ([8]; 50 µM): 0.51
log2FC ([8]; 100 µM): 0.41
log2FC ([8]; 10^-2 µM): 0.50
log2FC ([8]; 10^-3 µM): 0.39
log2FC (DnaJ protein (W7JVI6); 10 µM): 0.38
log2FC (DnaJ protein (W7JVI6); 50 µM): 0.51
log2FC (DnaJ protein (W7JVI6); 100 µM): 0.40
log2FC (DnaJ protein (W7JVI6); 10^-2 µM): 0.30
log2FC (DnaJ protein (W7JVI6); 10^-3 µM): 0.12
log2FC ([9]; 10 µM): 0.35
log2FC ([9]; 50 µM): 0.45
log2FC ([9]; 100 µM): 0.31
log2FC ([9]; 10^-2 µM): 0.30
log2FC ([9]; 10^-3 µM): 0.15
log2FC ([10]; 10 µM): 0.30
log2FC ([10]; 50 µM): 0.55
log2FC ([10]; 100 µM): 0.41
log2FC ([10]; 10^-2 µM): 0.48
log2FC ([10]; 10^-3 µM): 0.30
log2FC ([11]; 10 µM): 0.30
log2FC ([11]; 50 µM): 0.44
log2FC ([11]; 100 µM): 0.41
log2FC ([11]; 10^-2 µM): 0.42
log2FC ([11]; 10^-3 µM): 0.17
log2FC ([12]; 10 µM): 0.33
log2FC ([12]; 50 µM): 0.36
log2FC ([12]; 100 µM): 0.30
log2FC ([12]; 10^-2 µM): 0.36
log2FC ([12]; 10^-3 µM): 0.20
log2FC ([13]; 10 µM): 0.52
log2FC ([13]; 50 µM): 0.87
log2FC ([13]; 100 µM): 0.59
log2FC ([13]; 10^-2 µM): 0.50
log2FC ([13]; 10^-3 µM): 0.25
log2FC ([14]; 10 µM): 1.08
log2FC ([14]; 50 µM): 1.03
log2FC ([14]; 100 µM): 0.88
log2FC ([14]; 10^-2 µM): 1.16
log2FC ([14]; 10^-3 µM): 0.39
